Measured values: patent US8822449B2, “Substituted aminoindanes and analogs thereof, and the pharmaceutical use thereof” (Sanofi, priority 2008, dated 2014)

Each molecule was assayed against T1, sodium-proton exchanger of subtype 3 (NHE3) (Homo sapiens, UniProt P48764) (assay: Recovery of intracellular pH (pHi) after acidification in LAP1 cells stably expressing NHE3 (BCECF fluorescence, FLIPR)). Conditions: LAP1 cells stably expressing NHE3; pH recovery after acidification; range 1 is % inhibition at 10 μM; read-out: Activity range (inhibitory effect on NHE3).
T1 construct: expressed in transfected cells
T1 sequence (P48764 26-834): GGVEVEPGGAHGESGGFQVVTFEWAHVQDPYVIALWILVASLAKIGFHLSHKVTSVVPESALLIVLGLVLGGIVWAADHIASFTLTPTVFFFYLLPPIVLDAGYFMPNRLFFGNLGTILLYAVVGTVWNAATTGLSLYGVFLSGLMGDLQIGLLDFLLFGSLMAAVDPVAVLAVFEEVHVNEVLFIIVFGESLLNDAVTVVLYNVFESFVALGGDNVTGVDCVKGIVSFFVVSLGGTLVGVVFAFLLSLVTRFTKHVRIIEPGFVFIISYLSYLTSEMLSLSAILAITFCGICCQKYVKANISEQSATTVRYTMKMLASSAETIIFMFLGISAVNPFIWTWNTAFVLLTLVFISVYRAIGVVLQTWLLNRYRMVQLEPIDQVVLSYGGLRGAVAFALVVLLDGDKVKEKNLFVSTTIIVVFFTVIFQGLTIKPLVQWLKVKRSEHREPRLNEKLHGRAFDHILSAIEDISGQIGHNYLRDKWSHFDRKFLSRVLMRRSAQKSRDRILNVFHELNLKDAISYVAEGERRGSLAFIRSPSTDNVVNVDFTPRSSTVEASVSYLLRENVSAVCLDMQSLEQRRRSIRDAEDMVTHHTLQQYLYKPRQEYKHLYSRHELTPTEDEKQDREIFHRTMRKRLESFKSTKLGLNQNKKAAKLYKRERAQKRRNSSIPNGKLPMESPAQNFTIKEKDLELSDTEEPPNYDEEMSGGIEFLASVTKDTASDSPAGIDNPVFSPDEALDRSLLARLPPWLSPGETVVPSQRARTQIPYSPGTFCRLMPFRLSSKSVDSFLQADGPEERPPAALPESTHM
Format: cell-based
`Cc1nnc(C)n1-c1ccc(O[C@H]2c3cc(Cl)cc(F)c3C[C@@H]2N2CC[C@@H](O)C2)c(Cl)c1` [Example 138, (R)-1-{trans-(1S,2S)-6-chloro-1-[2-chloro-4-(3,5-dimethyl-[1,2,4]triazol-4-yl)phenoxy]-4-fluoroindan-2-yl}pyrrolidin-3-ol] was tested, and the IC50 was under 1000 nM.
With `N[C@H]1CCCN([C@H]2CCc3ccccc3[C@@H]2Oc2ccncc2)C1` (racemic) [Example 191, (S)-1-[rac-trans-(1,2)-1-(pyridin-4-yloxy)-1,2,3,4-tetrahydronaphthalen-2-yl]piperidin-3-ylamine] the inhibition at 10 µM was 20 to 50%.
Molecule `N#Cc1c(F)cccc1O[C@@H]1c2ccccc2C[C@H]1N1C[C@H]2CNC[C@H]2C1` (racemic) [Example 398, 2-fluoro-6-[rac-trans-(1,2)-2-(hexahydropyrrolo[3,4-c]pyrrol-2-yl)indan-1-yloxy]benzonitrile] has an IC50 of 1000 to 10000 nM.
For `CC(=O)Nc1cccc(O[C@H]2c3cc(Cl)cc(Cl)c3C[C@@H]2N2CC3CNCC3C2)c1` (mixture of isomers) [Example 689, N-{3-[rac-trans-(1,2)-4,6-dichloro-2-(hexahydropyrrolo[3,4-c]pyrrol-2-yl)indan-1-yloxy]phenyl}acetamide], the IC50 was under 1000 nM.
`O=S1(=O)CCCN1c1cccc(O[C@H]2c3cc(Cl)cc(Cl)c3C[C@@H]2N2CC[C@@H](O)C2)c1` [Example 123, (R)-1-{trans-(1S,2S)-4,6-dichloro-1-[3-(1,1-dioxo-1lambda6-isothiazolidin-2-yl)phenoxy]indan-2-yl}pyrrolidin-3-ol] showed an IC50 of 1000 to 10000 nM.
`CS(=O)(=O)c1ccc(O[C@H]2c3cc(Cl)ccc3C[C@@H]2N2CC[C@@H](O)C2)c(Cl)c1` [Example 107, (R)-1-[trans-(1S,2S)-6-chloro-1-(2-chloro-4-methanesulfonylphenoxy)indan-2-yl]pyrrolidin-3-ol] showed an IC50 of 1000 to 10000 nM.
`Cc1ccc(O[C@@H]2c3ccccc3C[C@H]2N2CCC(CN)CC2)c(Br)c1` (racemic) [Example 603, C-{1-[rac-trans-(1,2)-1-(2-bromo-4-methylphenoxy)indan-2-yl]piperidin-4-yl}methylamine] was tested, and the IC50 was 1000 to 10000 nM.
`N[C@@H]1CCCN([C@H]2CCc3ccccc3[C@@H]2Oc2ccc(F)cc2-c2ccno2)C1` (racemic) [Example 68, (R)-1-[rac-trans-(1,2)-1-(4-fluoro-2-isoxazol-5-ylphenoxy)-1,2,3,4-tetrahydronaphthalen-2-yl]piperidin-3-ylamine] gave an inhibition at 10 µM of 20 to 50%.
With `O=c1[nH]ccn1-c1ccc(O[C@H]2c3cc(Cl)cc(Cl)c3C[C@@H]2N2CC[C@@H](O)C2)cc1` [Example 325, 1-{4-[(1S,2S)-4,6-dichloro-2-((R)-3-hydroxypyrrolidin-1-yl)indan-1-yloxy]phenyl}-1,3-dihydroimidazol-2-one] the IC50 was under 1000 nM.
Work on `N#Cc1cc(Cl)ccc1O[C@@H]1c2ccccc2C[C@H]1N1CCC(N)C1` (mixture of isomers) [Example 375, 2-[rac-trans-(1,2)-2-(3-aminopyrrolidin-1-yl)indan-1-yloxy]-5-chlorobenzonitrile] yielded an IC50 of 1000 to 10000 nM.
`NS(=O)(=O)c1ccc(O[C@H]2c3ccccc3C[C@@H]2N2CCCCC2)cc1` (racemic) [Example 465, 4-(rac-trans-(1,2)-2-piperidin-1-ylindan-1-yloxy)benzenesulfonamide] gave an IC50 of under 1000 nM.
`Cc1c(Cl)cccc1O[C@@H]1c2ccccc2C[C@H]1N1CCC(CN)C1` (mixture of isomers) [Example 611, C-{1-[rac-trans-(1,2)-1-(3-chloro-2-methylphenoxy)indan-2-yl]pyrrolidin-3-yl}methylamine] gave an IC50 of 1000 to 10000 nM.
Molecule `NS(=O)(=O)c1ccc(O[C@@H]2c3ccccc3C[C@H]2NC2CC2)c(F)c1` (racemic) [Example 703, 4-(rac-trans-(1,2)-2-Cyclopropylamino-indan-1-yloxy)-3-fluoro-benzenesulfonamide] has an IC50 of 1000 to 10000 nM.
Work on `N[C@H]1CCCN([C@H]2CCc3ccccc3[C@@H]2Oc2ccccc2N2CCOCC2)C1` (racemic) [Example 158, (S)-1-[rac-trans-(1,2)-1-(2-morpholin-4-ylphenoxy)-1,2,3,4-tetrahydronaphthalen-2-yl]piperidin-3-ylamine] yielded an inhibition at 10 µM of 20 to 50%.
In the case of `COCCc1ccc(O[C@@H]2c3ccccc3C[C@H]2N2CCC(CN)C2)cc1` (mixture of isomers) [Example 598, C-(1-{rac-trans-(1,2)-1-[4-(2-methoxyethyl)phenoxy]indan-2-yl}pyrrolidin-3-yl)methylamine], the IC50 is reported as 1000 to 10000 nM.
`CO[C@@H]1CCN(C2Cc3ccccc3C2Oc2cccc(NC(C)=O)c2)C1` (mixture of isomers) [Example 682, N-{3-[rac-trans-(1,2)-2-((R)-3-methoxypyrrolidin-1-yl)indan-1-yloxy]phenyl}acetamide] showed an IC50 of 1000 to 10000 nM.
`CS(=O)(=O)c1nccn1-c1ccc(O[C@H]2c3cc(Cl)cc(Cl)c3C[C@@H]2N2CC[C@@H](O)C2)c(F)c1` [Example 739, (R)-1-{trans-(1S,2S)-4,6-Dichloro-1-[2-fluoro-4-(2-methanesulfonyl-imidazol-1-yl)-phenoxy]-indan-2-yl}-pyrrolidin-3-ol] was tested, and the IC50 was under 1000 nM.
With `CS(=O)(=O)c1ccc(O[C@H]2c3cc(Cl)cc(F)c3C[C@@H]2N2CC[C@@H](O)C2)c(Cl)c1` [Example 106, (R)-1-[trans-(1S,2S)-6-chloro-1-(2-chloro-4-methanesulfonylphenoxy)-4-fluoroindan-2-yl]pyrrolidin-3-ol] the IC50 was under 1000 nM.
Molecule `Cc1nnc(C)n1-c1cccc(O[C@H]2c3ccccc3C[C@@H]2N2CCCC2)c1` (racemic) [Example 404, 3,5-dimethyl-4-[3-(rac-trans-(1,2)-2-pyrrolidin-1-ylindan-1-yloxy)phenyl]-4H-[1,2,4]triazole] has an inhibition at 10 µM of 20 to 50%.
`CN1CC(=O)N(c2ccc(O[C@H]3c4cc(Cl)cc(Cl)c4C[C@@H]3N3CC[C@@H](O)C3)c(Cl)c2)C1=O` [Example 422, 3-{3-chloro-4-[(1S,2S)-4,6-dichloro-2-((R)-3-hydroxypyrrolidin-1-yl)indan-1-yloxy]phenyl}-1-methylimidazolidine-2,4-dione] gave an IC50 of under 1000 nM.
`Cn1ccn(-c2ccc(O[C@H]3c4cc(Cl)cc(Cl)c4C[C@@H]3N3CC[C@@H](O)C3)cc2)c1=O` [Example 331, 1-{4-[trans-(1S,2S)-4,6-dichloro-2-((R)-3-hydroxypyrrolidin-1-yl)indan-1-yloxy]phenyl}-3-methyl-1,3-dihydroimidazol-2-one] showed an IC50 of under 1000 nM.
In the case of `Cc1nnc(C)n1-c1ccc(O[C@H]2c3cc(Cl)cc(Cl)c3C[C@@H]2N2CC[C@@H](O)C2)c(F)c1F` [Example 126, (R)-1-{trans-(1S,2S)-4,6-dichloro-1-[4-(3,5-dimethyl-[1,2,4]triazol-4-yl)-2,3-difluorophenoxy]indan-2-yl}pyrrolidin-3-ol], the IC50 is reported as under 1000 nM.
For `Cc1nc2cc(O[C@@H]3c4ccccc4C[C@H]3N3C[C@H]4CNC[C@H]4C3)ccc2s1` (racemic) [Example 576, 5-[rac-trans-(1,2)-2-(hexahydropyrrolo[3,4-c]pyrrol-2-yl)indan-1-yloxy]-2-methylbenzothiazole], the IC50 was 1000 to 10000 nM.
For `N[C@@H]1CCCN([C@@H]2Cc3ccccc3[C@H]2Oc2ccc3ccncc3c2)C1` (racemic) [Example 85, (R)-1-[rac-trans-(1,2)-1-(isoquinolin-7-yloxy)indan-2-yl]piperidin-3-ylamine], the IC50 was 1000 to 10000 nM.
In the case of `O=C(O)c1ccc(O[C@H]2c3ccccc3C[C@@H]2CN2CCCC2)cc1Cl` (racemic) [Example 390, 2-chloro-4-(2-pyrrolidin-1-ylmethylindan-1-yloxy)benzoic acid], the inhibition at 10 µM is reported as 20 to 50%.
